{
  "source": "patent US20120087914A1",
  "about": "“INHIBITION OF TRIM62 ACTIVITY REDUCES CANCER CELL PROLIFERATION” (Fred Hutchinson Cancer Research Center, priority 2008, published 2012)",
  "format_in_all_cases": "cell-based, human",
  "key": {"BT474 cells": {"system": "BT474 cells", "assay": "EdU incorporation by flow cytometry in BT474 cells", "details": "25 nM siRNA, 12 hours EdU, Control siRNA 17.5%", "method": "(§1) 4×10^5 MCF10A cells (immortalized, non-transformed epithelial cells derived from human fibrocystic mammary tissue; ATCC CRL-10217) or BT474 cells (Her2^+ human breast cancer cell line) were seeded in growth media (DMEM/F12 (Gibco), 5% horse serum (Invitrogen), […] (Peprotech), 1 mg/ml hydrocortisone (Sigma), […] cholera toxin (Sigma), […] (Sigma), and Pen/Strep (Invitrogen)). After 24 hours, media was changed to antibiotic-free growth medium, and lipofectamine 2000 was used to cotransfect MCF10A cells with either 15 nM Trim62SiRNA (SEQ ID NO: 9; 5′ AAGAAGCAGAGAAGCGCGC-3″ (Integrated DNA Technologies)) and 15 nM siGlow (non-targeting control siRNA labeled with Cy3 (Thermo Scientific)), or 15 nM Trim62scrambled siRNA (SEQ ID NO:10; 5′ GCGAGGACGGACAAA CAGA 3′ (Sigma)) and 15 nM siGlow; for BT474 cells 25 nM siRNA was used. 6 hours post transfection, media was replaced with growth media containing antibiotics, and 48 hours postransfection, MCF10A cell were incubated for 1.5 hours with […] (5-ethynyl-2′-deoxyuridine, an analog of BrdU); for BT474 cells incubation with EdU was for 12 hours. Cells were trypsinized, washed with PBS-1% FBS, and sorted for Cy3 transfection marker using a cell sorter (BD FACSArisII cell sorter). […] The data was collected using a BD FACS Diva software package and analyzed using BD CellQuest Pro Software. […]"}, "MCA10F cells": {"system": "MCA10F cells", "assay": "Cell cycle distribution of exponentially growing MCA10F cells (FIG. 9)", "details": "sorted on siGLO-FITC", "method": "FIG. 9 provides an assessment of TRIM62siRNA on the cell cycle of MCA10F exponentially growing cells. The cells were sorted on siGLO-FITC.\nas §1, with “hours.” for “hours. Cells were trypsinized, washed with PBS-1% FBS, and sorted for Cy3 transfection marker using a cell sorter (BD FACSArisII cell sorter).”"}, "MCF10A cells": {"system": "MCF10A cells", "assay": "EdU incorporation by flow cytometry in MCF10A cells", "details": "15 nM siRNA, 48 hours posttransfection, 1.5 hours EdU, control SiRNA 29.5%", "method": "as §1"}, "[1]": {"system": "p27^Kip1 protein levels in UACC893 cells", "assay": "p27^Kip1 Western blot in UACC893 cells with lapatinib and/or TRIM62 siRNA", "details": "UACC893 cells (amplified ErbB2), 0.5 μM lapatinib, siRNA from expression vector, FIG. 7", "method": "A breast cancer cell line with an amplified ErbB2 gene (UACC893) was transfected with a TRIM62 siRNA expression vector or a vector that expressed a control siRNA. p27^Kip1 levels were assayed by Western blotting using a p27^Kip1 specific antibody. After treatment of the control-transfected cells with 0.5 μM lapatinib, p27^Kip1 levels increased as compared to the untreated cells. Cells transfected with the TRIM62 siRNA also had increased p27^Kip1 levels.\np27^Kip1 protein levels were measured in breast cancer cells with ErbB2 gene amplification after administration of an ErbB2 specific mall organic molecule, lapatinib. p27^Kip1 expression levels were higher after lapatinib was administered. […] The increased levels of p27^Kip1 expression coincided with increased nuclear localization of p27^Kip1. Data not shown."}, "[2]": {"system": "p27^Kip1 protein levels in UACC893 cells transfected with a TRIM62 expression vector", "assay": "p27^Kip1 Western blot in UACC893 cells overexpressing TRIM62, treated with lapatinib", "details": "UACC893 cells overexpressing TRIM62, 0.5 μM lapatinib, FIG. 8", "method": "A breast cancer cell line with an amplified ErbB2 gene (UACC893) was transfected with a TRIM62 expression vector or an empty vector. p27^Kip1 levels were assayed by Western blotting using a p27^Kip1 specific antibody. Cells were treated with 0.5 μM lapatinib or buffer.\nThe effect of overexpression of TRIM62 protein on p27^Kip1 expression was determined in breast cancer cells with ErbB2 gene amplification. […] A breast cancer cell line with an amplified ErbB2 gene (UACC893) was transfected with a TRIM62 expression vector or an empty vector. p27^Kip1 levels were assayed by Western blotting using a p27^Kip1 specific antibody. Cells were treated with 0.5 μM lapatinib or buffer. As compared to an empty vector control, cells that overexpressed TRIM62 had low levels of p27^Kip1 protein expression."}},
  "data": [
    {"compound": "5′ AAGAAGCAGAGAAGCGCGC-3″ [T62siRNA]", "values": [
      {"measurement": "EdU^+ cells", "setting": "BT474 cells", "result": 9, "unit": "%"},
      {"measurement": "percentage of cells that remain in G1", "setting": "MCA10F cells", "result": "higher percentage"},
      {"measurement": "EdU^+ cells", "setting": "MCF10A cells", "result": 11.1, "unit": "%"}
    ]},
    {"compound": "CS(=O)(=O)CCNCc1ccc(-c2ccc3ncnc(Nc4ccc(OCc5cccc(F)c5)c(Cl)c4)c3c2)o1", "note": "[lapatinib]", "values": [
      {"measurement": "p27^Kip1 protein expression levels", "setting": "[1]", "result": "higher"},
      {"measurement": "expression of p27^Kip1 protein", "setting": "[2]", "result": "did not result in increased expression"}
    ]}
  ]
}
